Drawing on ChEMBL document CHEMBL2074364, “Reversal of multidrug resistance of cancer through inhibition of P-glycoprotein by 5-bromotetrandrine” (Cancer Chemother Pharmacol, 2005), this text covers Activity for 1 compound.

In series [1] the target is T1, ATP-dependent translocase ABCB1 (Homo sapiens, UniProt P08183). Put plainly: TP_TRANSPORTER: cell accumulation of doxorubicin in MCF-7/Dox cells. In kind it is functional, cell-based.
Series [2] addresses T1, ATP-dependent translocase ABCB1. Put plainly: TP_TRANSPORTER: increase in Doxorubicin intracellular accumulation in MCF-7/Dox cells. The series is classed as functional, cell-based.

T1 sequence (P08183 whole entry): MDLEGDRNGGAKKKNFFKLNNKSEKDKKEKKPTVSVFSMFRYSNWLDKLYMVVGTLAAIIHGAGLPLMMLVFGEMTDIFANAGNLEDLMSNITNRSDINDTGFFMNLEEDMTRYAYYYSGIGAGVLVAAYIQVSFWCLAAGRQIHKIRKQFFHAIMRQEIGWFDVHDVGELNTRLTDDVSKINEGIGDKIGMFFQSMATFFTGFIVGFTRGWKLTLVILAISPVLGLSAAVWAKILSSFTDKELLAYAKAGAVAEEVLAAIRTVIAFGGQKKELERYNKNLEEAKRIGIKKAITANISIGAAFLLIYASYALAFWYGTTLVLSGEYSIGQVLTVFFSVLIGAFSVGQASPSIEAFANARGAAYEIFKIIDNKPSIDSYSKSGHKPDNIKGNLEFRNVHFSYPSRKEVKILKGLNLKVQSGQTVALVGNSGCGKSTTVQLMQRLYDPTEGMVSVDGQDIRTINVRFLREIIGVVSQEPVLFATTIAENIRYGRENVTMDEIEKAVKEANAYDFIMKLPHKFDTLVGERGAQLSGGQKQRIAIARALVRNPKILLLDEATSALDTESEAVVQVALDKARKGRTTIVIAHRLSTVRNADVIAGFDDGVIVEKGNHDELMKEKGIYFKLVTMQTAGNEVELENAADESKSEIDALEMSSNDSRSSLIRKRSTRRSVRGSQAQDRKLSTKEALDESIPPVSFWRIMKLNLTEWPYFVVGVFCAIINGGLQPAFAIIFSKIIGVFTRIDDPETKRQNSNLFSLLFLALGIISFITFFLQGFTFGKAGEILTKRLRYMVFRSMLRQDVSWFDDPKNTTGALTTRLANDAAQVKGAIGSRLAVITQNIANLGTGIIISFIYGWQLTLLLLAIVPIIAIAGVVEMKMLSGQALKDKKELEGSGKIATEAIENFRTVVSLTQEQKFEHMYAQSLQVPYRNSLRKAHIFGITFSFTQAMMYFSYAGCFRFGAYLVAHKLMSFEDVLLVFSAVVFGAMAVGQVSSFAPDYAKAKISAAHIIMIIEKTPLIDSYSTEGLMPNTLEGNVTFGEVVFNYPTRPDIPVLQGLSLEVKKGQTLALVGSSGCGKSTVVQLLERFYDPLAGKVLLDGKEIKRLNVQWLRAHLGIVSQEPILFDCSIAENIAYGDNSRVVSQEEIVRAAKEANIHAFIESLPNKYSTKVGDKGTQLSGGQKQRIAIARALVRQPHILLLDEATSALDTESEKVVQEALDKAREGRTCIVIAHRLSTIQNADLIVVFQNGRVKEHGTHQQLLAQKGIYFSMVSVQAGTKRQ

Turning to `COc1ccc2cc1Oc1ccc(cc1)C[C@@]1(C)c3cc(c(OC)cc3CCN1C)Oc1c(OC)c(OC)c(Br)c3c1[C@](C)(C2)N(C)CC3` [BROMOTETRANDRINE], the Activity result in series [1] and in series [2] was “inhibitor [+]” each time.
